This is an account of results in patent US20240024488A1, “COMPOUNDS AND USES THEREOF” (Foghorn Therapeutics Inc., priority 2020, published 2024).

Each structure is given as a SMILES string.

In assay [1] the target is T1, HiBit-BRM fusion protein (Homo sapiens, UniProt P51531).
T1 construct: expressed in transfected cells
Description: HiBiT-BRM cell-based degradation assay (Nano-Glo HiBiT Lytic Detection, 24 h). As to conditions: HeLa cell line expressing HiBiT-BRM; for DC50: read-out: BRM HiBit Degradation IC50. A digest of the protocol: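 HeLa cells stably expressing HiBiT-BRM were treated for 24 h with compounds (10-point 3-fold dilutions, 30 μM final top dose, in duplicate). HiBiT was detected by lytic LgBiT complementation luminescence. % degradation was normalized to DMSO (high control) and 2 μM of a reference BRM/BRG1 degrader (low control).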
(In general: With HiBiT, luminescence reflects the tagged protein that the partner subunit can reach.)

Assay [2] concerns the target T2, HiBit-BRG1 fusion protein (Homo sapiens, UniProt P51532).
T2 construct: expressed in transfected cells
Description: HiBiT-BRG1 cell-based degradation assay (Nano-Glo HiBiT Lytic Detection, 24 h). As to conditions: HeLa cell line expressing HiBit-BRG1 and LgBit; for Dmax: read-out: BRG1 HiBit Degradation Maximum (%); for DC50: read-out: BRMG1 HiBit Degradation IC50. The essentials: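 Luminescence from Nano-Glo HiBiT lytic detection, read after 24 h compound exposure, scored degradation in a stable HeLa HiBiT-BRG1/LgBit line seeded at 5000 cells/well. DMSO wells defined 0% and 2 μM known BRM/BRG1 degrader wells defined full degradation.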

T1 sequence (P51531 whole entry, the tested form may be a part): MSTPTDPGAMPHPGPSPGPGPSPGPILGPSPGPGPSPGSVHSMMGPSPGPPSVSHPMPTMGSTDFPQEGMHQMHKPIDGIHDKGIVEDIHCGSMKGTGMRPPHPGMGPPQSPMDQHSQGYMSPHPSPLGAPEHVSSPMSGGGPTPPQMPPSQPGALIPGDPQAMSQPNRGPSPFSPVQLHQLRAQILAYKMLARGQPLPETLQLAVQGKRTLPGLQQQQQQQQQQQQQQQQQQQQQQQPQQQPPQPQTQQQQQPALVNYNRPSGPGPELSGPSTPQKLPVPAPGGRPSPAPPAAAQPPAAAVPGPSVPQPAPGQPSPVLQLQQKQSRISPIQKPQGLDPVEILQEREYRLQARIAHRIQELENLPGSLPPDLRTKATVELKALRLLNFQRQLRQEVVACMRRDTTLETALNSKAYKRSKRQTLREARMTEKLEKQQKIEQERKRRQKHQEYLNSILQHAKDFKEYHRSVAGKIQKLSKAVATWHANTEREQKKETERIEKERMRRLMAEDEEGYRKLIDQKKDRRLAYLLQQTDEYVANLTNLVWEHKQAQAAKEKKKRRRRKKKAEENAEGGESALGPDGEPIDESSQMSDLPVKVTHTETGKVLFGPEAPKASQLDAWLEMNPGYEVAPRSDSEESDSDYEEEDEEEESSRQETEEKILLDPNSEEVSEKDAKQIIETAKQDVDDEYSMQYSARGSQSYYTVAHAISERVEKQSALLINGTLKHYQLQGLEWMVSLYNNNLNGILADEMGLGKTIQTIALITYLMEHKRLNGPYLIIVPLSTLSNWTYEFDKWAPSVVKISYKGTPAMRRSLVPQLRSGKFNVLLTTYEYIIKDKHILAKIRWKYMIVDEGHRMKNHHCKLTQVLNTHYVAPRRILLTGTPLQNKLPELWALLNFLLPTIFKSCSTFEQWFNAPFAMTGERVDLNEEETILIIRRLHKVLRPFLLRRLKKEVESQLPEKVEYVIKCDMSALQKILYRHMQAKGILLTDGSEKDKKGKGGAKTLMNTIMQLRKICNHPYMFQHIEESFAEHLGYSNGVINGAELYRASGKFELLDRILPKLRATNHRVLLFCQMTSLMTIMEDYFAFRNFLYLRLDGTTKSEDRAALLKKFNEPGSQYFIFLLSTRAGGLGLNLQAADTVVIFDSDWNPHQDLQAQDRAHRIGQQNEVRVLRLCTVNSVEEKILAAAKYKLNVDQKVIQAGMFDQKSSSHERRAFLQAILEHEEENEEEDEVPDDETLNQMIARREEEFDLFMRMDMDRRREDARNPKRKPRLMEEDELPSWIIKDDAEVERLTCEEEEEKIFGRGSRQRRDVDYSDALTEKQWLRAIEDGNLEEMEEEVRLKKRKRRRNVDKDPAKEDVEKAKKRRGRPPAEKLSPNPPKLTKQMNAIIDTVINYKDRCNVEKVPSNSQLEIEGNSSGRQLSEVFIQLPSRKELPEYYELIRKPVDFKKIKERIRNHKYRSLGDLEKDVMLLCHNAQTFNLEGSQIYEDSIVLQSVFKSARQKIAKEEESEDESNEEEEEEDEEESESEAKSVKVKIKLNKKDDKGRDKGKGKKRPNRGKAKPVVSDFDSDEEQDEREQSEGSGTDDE
T2 sequence (P51532 whole entry, the tested form may be a part): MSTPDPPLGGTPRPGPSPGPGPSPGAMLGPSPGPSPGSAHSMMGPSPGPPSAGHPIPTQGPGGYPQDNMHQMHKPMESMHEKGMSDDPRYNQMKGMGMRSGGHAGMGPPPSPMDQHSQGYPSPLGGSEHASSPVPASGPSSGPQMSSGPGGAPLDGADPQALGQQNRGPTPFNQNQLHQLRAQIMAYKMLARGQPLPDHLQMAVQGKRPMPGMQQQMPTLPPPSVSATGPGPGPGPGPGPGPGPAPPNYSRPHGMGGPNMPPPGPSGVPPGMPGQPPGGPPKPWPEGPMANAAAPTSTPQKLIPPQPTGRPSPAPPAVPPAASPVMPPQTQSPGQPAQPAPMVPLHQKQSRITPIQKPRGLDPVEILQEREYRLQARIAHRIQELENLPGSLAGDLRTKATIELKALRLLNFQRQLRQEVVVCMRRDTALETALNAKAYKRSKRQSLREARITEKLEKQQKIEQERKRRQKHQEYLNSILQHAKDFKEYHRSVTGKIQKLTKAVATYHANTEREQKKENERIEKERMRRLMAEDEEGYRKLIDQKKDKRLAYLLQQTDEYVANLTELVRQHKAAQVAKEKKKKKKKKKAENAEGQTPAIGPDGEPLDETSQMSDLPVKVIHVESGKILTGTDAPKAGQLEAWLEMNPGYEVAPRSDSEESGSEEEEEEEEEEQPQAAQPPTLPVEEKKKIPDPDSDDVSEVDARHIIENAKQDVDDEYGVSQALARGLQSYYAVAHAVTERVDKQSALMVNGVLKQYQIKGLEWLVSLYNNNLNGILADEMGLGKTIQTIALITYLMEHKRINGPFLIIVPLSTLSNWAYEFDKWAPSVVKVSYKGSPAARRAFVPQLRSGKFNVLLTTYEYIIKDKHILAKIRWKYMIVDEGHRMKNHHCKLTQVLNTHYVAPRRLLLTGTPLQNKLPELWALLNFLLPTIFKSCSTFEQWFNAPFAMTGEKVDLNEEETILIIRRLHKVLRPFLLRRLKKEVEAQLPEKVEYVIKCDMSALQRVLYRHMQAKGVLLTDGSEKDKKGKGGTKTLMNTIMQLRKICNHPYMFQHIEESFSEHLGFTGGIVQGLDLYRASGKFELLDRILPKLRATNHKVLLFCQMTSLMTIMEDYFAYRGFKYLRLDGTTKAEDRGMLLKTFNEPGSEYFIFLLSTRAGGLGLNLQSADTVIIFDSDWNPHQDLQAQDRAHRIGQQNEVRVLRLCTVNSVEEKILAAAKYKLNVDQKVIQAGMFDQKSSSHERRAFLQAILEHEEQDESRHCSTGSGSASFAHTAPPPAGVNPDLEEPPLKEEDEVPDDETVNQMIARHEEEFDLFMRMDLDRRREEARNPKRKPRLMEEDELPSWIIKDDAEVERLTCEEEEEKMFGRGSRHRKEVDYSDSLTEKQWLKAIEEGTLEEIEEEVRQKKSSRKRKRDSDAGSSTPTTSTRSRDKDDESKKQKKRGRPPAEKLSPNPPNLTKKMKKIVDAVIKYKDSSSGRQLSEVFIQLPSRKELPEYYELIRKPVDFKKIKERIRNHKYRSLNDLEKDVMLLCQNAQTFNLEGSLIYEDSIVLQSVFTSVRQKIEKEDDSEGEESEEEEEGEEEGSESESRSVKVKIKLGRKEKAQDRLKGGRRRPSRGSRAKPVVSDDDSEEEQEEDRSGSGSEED

Take `Cc1ncsc1-c1ccc(CNC(=O)[C@@H]2C[C@@H](O)CN2C(=O)[C@@H](NC(=O)CCC(=O)N[C@@H]2CCc3[nH]c4nnc(-c5ccccc5O)cc4c3C2)C(C)(C)C)cc1` [Compound 171, N1-((S)-1-((2S,4R)-4-hydroxy-2-((4-(4-methylthiazol-5-yl)benzyl)carbamoyl)pyrrolidin-1-yl)-3,3-dimethyl-1-oxobutan-2-yl)-N4-((R)-3-(2-hydroxyphenyl)-6,7,8,9-tetrahydro-5H-pyridazino[3,4-b]indol-6-yl)succinamide]: the “BRM HiBit Degradation Maximum (%)” value in assay [1] was “C (“C” indicates maximum degradation < 50%)”. Besides, the Dmax in assay [2] was < 50%.

For `Cc1ncsc1-c1ccc([C@H](C)NC(=O)[C@@H]2C[C@@H](O)CN2C(=O)[C@@H](c2cc(OCCN3CCC(N4CC(c5cc6cc(-c7ccccc7O)nnc6[nH]5)C4)C3)no2)C(C)C)cc1` (mixture of isomers) [Compound 49, (2S,4R)-4-hydroxy-1-((2R)-2-(3-(2-(3-(3-(3-(2-hydroxyphenyl)-7H-pyrrolo[2,3-c]pyridazin-6-yl)azetidin-1-yl)pyrrolidin-1-yl)ethoxy)isoxazol-5-yl)-3-methylbutanoyl)-N-((S)-1-(4-(4-methylthiazol-5-yl)phenyl)ethyl)pyrrolidine-2-carboxamide], in assay [1], the “BRM HiBit Degradation Maximum (%)” value is “A (“A” indicates maximum degradation ≥ 75%)” and the DC50 was > 10 nM. In assay [2], the Dmax was > 50% and the DC50 was > 100 nM.

Turning to `Cc1ncsc1-c1ccc(C(C)NC(=O)C2CC(O)CN2C(=O)C(c2cc(OCCN3CC4C(C3)C4c3c(C)[nH]c4nnc(-c5ccccc5O)cc34)no2)C(C)C)cc1` [Compound 255, (2S,4R)-4-hydroxy-1-((R)-2-(3-(2-((1R,5S,6S)-6-(3-(2-hydroxyphenyl)-6-methyl-7H-pyrrolo[2,3-c]pyridazin-5-yl)-3-azabicyclo[3.1.0]hexan-3-yl)ethoxy)isoxazol-5-yl)-3-methylbutanoyl)-N-((S)-1-(4-(4-methylthiazol-5-yl)phenyl)ethyl)pyrrolidine-2-carboxamide], in assay [1], the “BRM HiBit Degradation Maximum (%)” value is reported as “A (“A” indicates maximum degradation ≥ 75%)” and the DC50 was > 10 nM. Moreover, in assay [2], the Dmax was < 50% and the DC50 is > 1000 nM.

For `Cc1ncsc1-c1ccc([C@H](C)NC(=O)[C@@H]2C[C@@H](O)CN2C(=O)C(c2cc(N3CCC(C(=O)N4CC(c5cc6cc(-c7ccccc7O)nnc6[nH]5)C4)CC3)no2)C(C)C)cc1` (mixture of isomers) [Compound 264, (2S,4R)-4-hydroxy-1-((R)-2-(3-(4-(3-(3-(2-hydroxyphenyl)-7H-pyrrolo[2,3-c]pyridazin-6-yl)azetidine-1-carbonyl)piperidin-1-yl)isoxazol-5-yl)-3-methylbutanoyl)-N-((S)-1-(4-(4-methylthiazol-5-yl)phenyl)ethyl)pyrrolidine-2-carboxamide], in assay [1], the “BRM HiBit Degradation Maximum (%)” value is listed as “C (“C” indicates maximum degradation < 50%)”. In addition, the Dmax in assay [2] is < 50%.

For the compound `Cc1ncsc1-c1ccc([C@H](C)NC(=O)[C@@H]2C[C@@H](O)CN2C(=O)[C@@H](c2cc(OCC(=O)N3CC4(Cc5cc(-c6ccccc6O)nnc5N4)C3)no2)C(C)C)cc1` (racemic) [Compound 95, (2S,4R)-4-hydroxy-1-((R)-2-(3-(2-(3′-(2-hydroxyphenyl)-5′,7′-dihydrospiro[azetidine-3,6′-pyrrolo[2,3-c]pyridazin]-1-yl)-2-oxoethoxy)isoxazol-5-yl)-3-methylbutanoyl)-N-((S)-1-(4-(4-methylthiazol-5-yl)phenyl)ethyl)pyrrolidine-2-carboxamide], in assay [1], the “BRM HiBit Degradation Maximum (%)” value is “B (“B” indicates maximum degradation ≥ 50%)” and the DC50 is > 1000 nM. Moreover, the Dmax in assay [2] is < 50%.

On to `Cc1ncsc1-c1ccc([C@H](C)NC(=O)[C@@H]2C[C@@H](O)CN2C(=O)[C@@H](c2cc(OCCNCC34CC(c5cc6cc(-c7ccccc7O)nnc6[nH]5)(C3)C4)no2)C(C)C)cc1` (racemic) [Compound 213, (2S,4R)-4-hydroxy-1-((R)-2-(3-(2-(((3-(3-(2-hydroxyphenyl)-7H-pyrrolo[2,3-c]pyridazin-6-yl)bicyclo[1.1.1]pentan-1-yl)methyl)amino)ethoxy)isoxazol-5-yl)-3-methylbutanoyl)-N-((S)-1-(4-(4-methylthiazol-5-yl)phenyl)ethyl)pyrrolidine-2-carboxamide], for which, in assay [1], the “BRM HiBit Degradation Maximum (%)” value was “A (“A” indicates maximum degradation ≥ 75%)” and the DC50 is > 10 nM. In assay [2], the Dmax is > 75% and the DC50 was > 100 nM.

Consider `Cc1ncsc1-c1ccc([C@H](C)NC(=O)[C@@H]2C[C@@H](O)CN2C(=O)[C@@H](c2cc(OCCN3CC(c4[nH]c5nnc(-c6ccccc6O)cc5c4C4CC4)C3)no2)C(C)C)cc1` (racemic) [Compound 164, (2S,4R)-1-((R)-2-(3-(2-(3-(5-cyclopropyl-3-(2-hydroxyphenyl)-7H-pyrrolo[2,3-c]pyridazin-6-yl)azetidin-1-yl)ethoxy)isoxazol-5-yl)-3-methylbutanoyl)-4-hydroxy-N-((S)-1-(4-(4-methylthiazol-5-yl)phenyl)ethyl)pyrrolidine-2-carboxamide], for which, in assay [1], the “BRM HiBit Degradation Maximum (%)” value was “A (“A” indicates maximum degradation ≥ 75%)” and the DC50 was > 10 nM. Moreover, in assay [2], the Dmax is > 75% and the DC50 is > 100 nM.

Regarding `Cc1ncsc1-c1ccc([C@H](C)NC(=O)[C@@H]2C[C@@H](O)CN2C(=O)[C@@H](c2cc(OCCN3CCC(c4c(C)[nH]c5nnc(-c6ccccc6O)cc45)CC3)no2)C(C)C)cc1` (racemic) [Compound 265, (2S,4R)-4-hydroxy-1-[(2R)-2-[3-(2-{4-[3-(2-hydroxyphenyl)-6-methyl-7H-pyrrolo[2,3-c]pyridazin-5-yl]piperidin-1-yl}ethoxy)-1,2-oxazol-5-yl]-3-methylbutanoyl]-N-[(1S)-1-[4-(4-methyl-1,3-thiazol-5-yl)phenyl]ethyl]pyrrolidine-2-carboxamide], in assay [1], the “BRM HiBit Degradation Maximum (%)” value is given as “A (“A” indicates maximum degradation ≥ 75%)” and the DC50 is > 100 nM. In assay [2], the Dmax is < 50%.

Regarding `Cc1ncsc1-c1ccc([C@H](C)NC(=O)[C@@H]2C[C@@H](O)CN2C(=O)[C@@H](c2cc(OCCNC(=O)C(=O)N3CC(c4cc5cc(-c6ccccc6O)nnc5[nH]4)C3)no2)C(C)C)cc1` (racemic) [Compound 240, (2S,4R)-4-hydroxy-1-((R)-2-(3-(2-(2-(3-(3-(2-hydroxyphenyl)-7H-pyrrolo[2,3-c]pyridazin-6-yl)azetidin-1-yl)-2-oxoacetamido)ethoxy)isoxazol-5-yl)-3-methylbutanoyl)-N-((S)-1-(4-(4-methylthiazol-5-yl)phenyl)ethyl)pyrrolidine-2-carboxamide], in assay [1], the “BRM HiBit Degradation Maximum (%)” value is listed as “A (“A” indicates maximum degradation ≥ 75%)” and the DC50 is > 100 nM. Further, in assay [2], the Dmax is > 50% and the DC50 is > 1000 nM.
